# Measurements from patent US11466034B2, “Compound functioning as bromodomain protein inhibitor, and composition” (Betta Pharmaceuticals Co., Ltd., priority 2017, dated 2022).
# What was measured:
# [1] = target: BRD4(D1) (Homo sapiens (Human), UniProt O60885); test: Inhibitory activity against BRD4(D1), HTRF assay; type: binding
# Method: (§1) (+)-JQ1 was used as comparison compound, to evaluated the inhibitory activity of compounds of the invention against BRD4(D1) and BRD4(D2) in vitro.
# (§2) The assays of BRD4 (D1) and BRD4 (D2) were conducted in a 384-well polystyrene plate. The test compounds were first serially diluted in DMSO and the test compound/DMSO were transferred to 384-well plates. The final concentration of DMSO in the assay was 0.1%. 2 volumes of protein/peptide mixture were added into 384-well plates, then 2 volumes of assay mixture were added, and shake for 30 s. The plate was incubated at room temperature for 2 h. Then the HTRF signal on EnVision was readed.
# (§3) Use equation (1) to fit the date in Excel to obtain the value of the inhibition rate. Inhibition rate (%)=(maximum value−signal value)/(maximum value−minimum value)*100 Equation(1):
# (§4) IC50 determination was performed by fitting the data using GraphPad Prism 5.0 software and equation (2). Y=bottom+(Top−bottom)/(1+10^((Log IC50−X)*HillSlope)); Equation(2): wherein, Y represents the percentage of inhibition (%); X represents the concentration of test compounds.
# (§5) The IC50 data of the examples were provided in the following table, wherein, A stands for IC50<100 nM; B stands for IC50 is 100-300 nM; C stands for IC50>300 nM.
# [2] = target: BRD4(D2) (Homo sapiens (Human), UniProt O60885); test: Inhibitory activity against BRD4(D2), HTRF assay; type: binding
# Method: as §1, §2, §3, §4, §5
SMILES,IC50 ([1]; class symbols) [nM],IC50 ([2]; class symbols) [nM],IC50 ([1]; numeric values) [nM],IC50 ([2]; numeric values) [nM]
"Cn1cc(-c2cnc3[nH]c(=O)n(Cc4ccc(Cl)cc4)c3c2)c2cc[nH]c2c1=O [Example 34, 1-(4-chlorobenzyl)-6-(6-methyl-7-oxo-6,7-dihydro-1H-pyrrolo[2,3-c]pyridin-4-yl)-1,3-dihydro-2H-imidazo[4,5-b]pyridin-2-one]",,,107,31
"Cc1[nH]c2ncc(-c3cn(C)c(=O)c4[nH]ccc34)cc2c1C(C)c1c(Cl)ccc(F)c1Cl (centres unmarked) [Example 35, 4-(3-(1-(2,6-dichloro-3-fluorophenyl)ethyl)-2-methyl-1H-pyrrolo[2,3-b]pyridin-5-yl)-6-methyl-1,6-dihydro-7H-pyrrolo[2,3-c]pyridin-7-one]",,,45.1,5.3
"Cn1cc(-c2cnc3ccn(Cc4c(Cl)cccc4Cl)c3c2)c2cc[nH]c2c1=O [Example 36, 4-(1-(2,6-dichlorobenzyl)-1H-pyrrolo[3,2-b]pyridin-6-yl)-6-methyl-1,6-dihydro-7H-pyrrolo[2,3-c]pyridin-7-one]",,,15,2.9
"Cn1cc(-c2cnc3ncnc(Nc4ccc(Cl)cc4)c3c2)c2cc[nH]c2c1=O [Example 37, 4-(4-((4-chlorophenyl)amino)pyrido[2,3-d]pyrimidin-6-yl)-6-methyl-1,6-dihydro-7H-pyrrolo[2,3-c]pyridin-7-one]",> 300,> 300,,
"Cc1cc2ncc(-c3cn(C)c(=O)c4[nH]ccc34)cc2n1Cc1c(Cl)cccc1Cl [Example 38, 4-(1-(2,6-dichlorobenzyl)-2-methyl-1H-pyrrolo[3,2-b]pyridin-6-yl)-6-methyl-1,6-dihydro-7H-pyrrolo[2,3-c]pyridin-7-one]",,,7.3,2.2
"Cn1cc(-c2ccc3ccn(S(=O)(=O)c4ccc(Cl)cc4)c3n2)c2cc[nH]c2c1=O [Example 40, 4-(1-((4-chlorophenyl)sulfonyl)-1H-pyrrolo[2,3-b]pyridin-6-yl)-6-methyl-1,6-dihydro-7H-pyrrolo[2,3-c]pyridin-7-one]",,,10.5,2.5
"CCS(=O)(=O)Nc1cc(-c2cn(C)c(=O)c3[nH]ccc23)cc2c1nc(C)n2Cc1ccc(Cl)c(C(F)(F)F)c1 [Example 50, N-(2-methyl-6-(6-methyl-7-oxo-6,7-dihydro-1H-pyrrolo[2,3-c]pyridin-4-yl)-1-(3-(trifluoromethyl)-4chlorobenzyl)-1H-benzo[d]imidazol-4-yl)ethanesulfonamide]",< 100,< 100,,
"CCS(=O)(=O)Nc1cc(-c2cn(C)c(=O)c3[nH]ccc23)cc2c1nc(C)n2Cc1ccc(C(F)(F)F)c(F)c1 [Example 51, N-(2-methyl-6-(6-methyl-7-oxo-6,7-dihydro-1H-pyrrolo[2,3-c]pyridin-4-yl)-1-(3-fluoro-4-(trifluoromethyl)benzyl)-1H-benzo[d]imidazol-4-yl)ethanesulfonamide]",< 100,< 100,,
"CCS(=O)(=O)Nc1cc(-c2cn(C)c(=O)c3[nH]ccc23)cc2c1nc(C)n2Cc1ccc(C(F)(F)F)c(Cl)c1 [Example 52, N-(2-methyl-6-(6-methyl-7-oxo-6,7-dihydro-1H-pyrrolo[2,3-c]pyridin-4-yl)-1-(3-chloro-4-(trifluoromethyl)benzyl)-1H-benzo[d]imidazol-4-yl)ethanesulfonamide]",< 100,< 100,,
"CCS(=O)(=O)Nc1cc(-c2cn(C)c(=O)c3[nH]ccc23)cc2c1nc(C)n2Cc1cccc(Cl)c1 [Example 53, N-(2-methyl-6-(6-methyl-7-oxo-6,7-dihydro-1H-pyrrolo[2,3-c]pyridin-4-yl)-1-(3-chlorobenzyl)-1H-benzo[d]imidazol-4-yl)ethanesulfonamide]",< 100,< 100,,
"CCS(=O)(=O)Nc1cc(-c2cn(C)c(=O)c3[nH]ccc23)cc2c1nc(C)n2Cc1ccc(Br)cc1 [Example 55, N-(2-methyl-6-(6-methyl-7-oxo-6,7-dihydro-1H-pyrrolo[2,3-c]pyridin-4-yl)-1-(4-bromobenzyl)-1H-benzo[d]imidazol-4-yl)ethanesulfonamide]",< 100,< 100,,
"CCS(=O)(=O)Nc1cc(-c2cn(C)c(=O)c3[nH]ccc23)cc2c1nc(C)n2Cc1ccc(S(C)(=O)=O)cc1 [Example 56, N-(2-methyl-6-(6-methyl-7-oxo-6,7-dihydro-1H-pyrrolo[2,3-c]pyridin-4-yl)-1-(4-(methylsulfonyl)benzyl)-1H-benzo[d]imidazol-4-yl)ethanesulfonamide]",< 100,< 100,,

# Now from value to compound:
IC50 ([1]; class symbols) [nM],IC50 ([2]; class symbols) [nM],IC50 ([1]; numeric values) [nM],IC50 ([2]; numeric values) [nM],SMILES
< 100,< 100,,,"Cc1nc2ncc(-c3cn(C)c(=O)c4[nH]ccc34)nc2n1Cc1ccc(C(F)(F)F)c(Cl)c1 [Example 29, 4-(1-(3-chloro-4-trifluoromethylbenzyl)-2-methyl-1H-imidazo[4,5-b]pyrazin-6-yl)-6-methyl-1H-pyrrolo[2,3-c]pyridin-7(6H)-one]"
< 100,< 100,,,"Cc1nc2ncc(-c3cn(C)c(=O)c4[nH]ccc34)nc2n1Cc1cccc(Cl)c1 [Example 30, 4-(1-(3-chlorobenzyl)-2-methyl-1H-imidazo[4,5-b]pyrazin-6-yl)-6-methyl-1H-pyrrolo[2,3-c]pyridin-7(6H)-one]"
< 100,< 100,,,"Cc1nc2ncc(-c3cn(C)c(=O)c4[nH]ccc34)nc2n1Cc1ccc(F)cc1F [Example 31, 4-(1-(2,4-difluorobenzyl)-2-methyl-1H-imidazo[4,5-b]pyrazin-6-yl)-6-methyl-1H-pyrrolo[2,3-c]pyridin-7(6H)-one]"
< 100,< 100,,,"Cc1nc2ncc(-c3cn(C)c(=O)c4[nH]ccc34)nc2n1Cc1ccc(Br)cc1 [Example 32, 4-(1-(4-bromobenzyl)-2-methyl-1H-imidazo[4,5-b]pyrazin-6-yl)-6-methyl-H-pyrrolo[2,3-c]pyridin-7(6H)-one]"
< 100,< 100,,,"Cc1nc2ncc(-c3cn(C)c(=O)c4[nH]ccc34)nc2n1Cc1ccc(S(C)(=O)=O)cc1 [Example 33, 6-methyl-4-(2-methyl-1-(4-(methylsulfonyl)benzyl)-1H-imidazo[4,5-b]pyrazin-6-yl)-1H-pyrrolo[2,3-c]pyridin-7(6H)-one]"
< 100,< 100,,,"CCS(=O)(=O)Nc1cc(-c2cn(C)c(=O)c3[nH]ccc23)cc2c1nc(C)n2Cc1ccc(C(F)(F)F)cc1 [Example 42, N-(2-methyl-6-(6-methyl-7-oxo-6,7-dihydro-1H-pyrrolo[2,3-c]pyridin-4-yl)-1-(4-(trifluoromethyl)benzyl)-1H-benzo[d]imidazol-4-yl)ethanesulfonamide]"
< 100,< 100,,,"CCS(=O)(=O)Nc1cc(-c2cn(C)c(=O)c3[nH]ccc23)cc2c1nc(C)n2Cc1ccc(OC)cc1 [Example 43, N-(1-(4-methoxybenzyl)-2-methyl-6-(6-methyl-7-oxo-6,7-dihydro-H-pyrrolo[2,3-c]pyridin-4-yl)-1H-benzo[d]imidazol-4-yl)ethanesulfonamide]"
< 100,< 100,,,"CCS(=O)(=O)Nc1cc(-c2cn(C)c(=O)c3[nH]ccc23)cc2c1nc(C)n2C(C)c1ccc(Cl)cc1 (centres unmarked) [Example 44, N-(1-(1-(4-chlorophenyl)ethyl)-2-methyl-6-(6-methyl-7-oxo-6,7-dihydro-H-pyrrolo[2,3-c]pyridin-4-yl)-1H-benzo[d]imidazol-4-yl)ethanesulfonamide]"
< 100,< 100,,,"CCS(=O)(=O)Nc1cc(-c2cn(C)c(=O)c3[nH]ccc23)cc2c1nc(C)n2Cc1ccccc1 [Example 45, N-(1-benzyl-2-methyl-6-(6-methyl-7-oxo-6,7-dihydro-1H-pyrrolo[2,3-c]pyridin-4-yl)-1H-benzo[d]imidazol-4-yl)ethanesulfonamide]"
< 100,< 100,,,"CCS(=O)(=O)Nc1cc(-c2cn(C)c(=O)c3[nH]ccc23)cc2c1nc(C)n2Cc1cccc(C(F)(F)F)c1 [Example 46, N-(2-methyl-6-(6-methyl-7-oxo-6,7-dihydro-1H-pyrrolo[2,3-c]pyridin-4-yl)-1-(3-(trifluoromethyl)benzyl)-1H-benzo[d]imidazol-4-yl)ethanesulfonamide]"
< 100,< 100,,,"CCS(=O)(=O)Nc1cc(-c2cn(C)c(=O)c3[nH]ccc23)cc2c1nc(C)n2Cc1cc(C(F)(F)F)ccc1F [Example 47, N-(2-methyl-6-(6-methyl-7-oxo-6,7-dihydro-1H-pyrrolo[2,3-c]pyridin-4-yl)-1-(2-fluoro-5-(trifluoromethyl)benzyl)-1H-benzo[d]imidazol-4-yl)ethanesulfonamide]"
< 100,< 100,,,"CCS(=O)(=O)Nc1cc(-c2cn(C)c(=O)c3[nH]ccc23)cc2c1nc(C)n2Cc1cc(F)cc(C(F)(F)F)c1 [Example 48, N-(2-methyl-6-(6-methyl-7-oxo-6,7-dihydro-1H-pyrrolo[2,3-c]pyridin-4-yl)-1-(3-fluoro-5-(trifluoromethyl)benzyl)-1H-benzo[d]imidazol-4-yl)ethanesulfonamide]"
< 100,< 100,,,"CCS(=O)(=O)Nc1cc(-c2cn(C)c(=O)c3[nH]ccc23)cc2c1nc(C)n2Cc1ccc(Cl)cc1F [Example 49, N-(2-methyl-6-(6-methyl-7-oxo-6,7-dihydro-1H-pyrrolo[2,3-c]pyridin-4-yl)-1-(2-fluoro-4-chlorobenzyl)-1H-benzo[d]imidazol-4-yl)ethanesulfonamide]"
